Measurements reported in patent US20230302083A1, “HIGHLY-NETWORKED C[…] COMPOSITION” (priority 2020, published 2023).

Key:
HLA-A*0301 = biological target: T1, HLA-A*0301 (Homo sapiens, UniProt P04439); assay: HLA class I-peptide stability assay in TAP-deficient HLA-A*0301 mono-allelic cells; type: cell-based
T1 construct: expressed in transfected cells; host or cells: TAP-deficient (CRISPR/Cas9) HLA-A*0301 mono-allelic 721.221 human B cells

HLA class I alleles = type: cell-based, human

Row | Sequence | HLA-A*0301 stabilization (HLA-A*0301) | 50% Experimental Binder (HLA class I alleles) | other results
1 | RVIHFGAGSDK [A3 COVID 3] | HLA stabilizing |  | 
2 | MIAQYTSAL [B7 COVID 16] |  |  | stabilization of HLA class I alleles (HLA class I alleles): stabilized a number of HLA class I alleles
3 | KGIYQTSNFR [A3 COVID 15] | HLA stabilizing |  | 
4 | YQDVNCTEV [B39 COVID 11] |  | YES | 
5 | NPLLYDANYFL [B81 COVID 14] |  | YES | 
